One data set concerns the target T1, insulin (Homo sapiens, UniProt P01308).
T1 construct: insulin (purchased from Sigma) was dissolved in deionized water; purchased Sigma
Briefly: Insulin β structure recognition (thioflavin T fluorescence). The format is binding. Conditions: insulin 0.1 mg/ml with β structure; average of two measurements; read-out: Insulin β sheet structure recognition EC50. The source says: (2)Method of Measuring Insulin β Structure Recognition
It is known that proteins having β sheet structure such as insulin, amylin, etc are present in the human body in addition to the amyloid β protein (Burket et al., Biochemistry, vol. 11, p. 2435-2439, 1972; Ashburn et al, Chemistry and Biology, vol. 3, p. 351-358, 1996). It is desirable that a probe for diagnosing diseases in which amyloid is accumulated, including Alzheimer's disease by recognizing the amyloid protein, has the higher affinity with the amyloid β protein and has the lower affinity with other proteins having β sheet structure. Then, the affinity of each compound to insulin having β structure was measured.
A method of quantifying β sheet structure of insulin in vitro was slightly modified to be used in the test of the present invention, with reference to the report by Klunk et al. (Journal of Histochemistry and Cytochemistry, vol.37, p.1237-1281, 1989). That is, insulin (purchased from Sigma) was dissolved in deionized water, adjusted to pH2 with hydrochloric acid, heated at 92° C. for 10 minutes, and cooled in a dry ice/ethanol cooling bath. Thereafter, heating at 92° C. for 3 minutes and cooling in a dry ice/ethanol cooling bath were repeated 7 or 8 times. This insulin solution was further diluted to 0.1 mg/ml with a phosphate buffer (pH 7.4) , and dispensed in a 96-well microplate at each volume of 50 microliters. A test compound dissolved in deionized water was dispensed at a volume of 50 microliters, and thiofravin T (emitting fluorescence depending on an extent of β structure) dissolved in a glycine-NaOH buffer (pH 8.5) was dispensed at each volume of 100 microliters, and then the fluorescent extent was measured with a fluorescent microplate reader (manufactured by Molecular Device, Model fmax) at an excitation wavelength of 442 nm and a measurement wavelength of 485 nm. When the fluorescence of thioflavin T alone was regarded as D, the fluorescence under the coexistence of insulin and thioflavin T was regarded as E, and the fluorescence under the coexistence of insulin, thioflavin T and a test compound was regarded as F, the insulin β structure recognition for the test compound was calculated by the following formula:
Insulin β structure recognition for test compound (%) ={(E−F)/(E−D)}×100
based on this value, by using the BSAS (Biological Statistical Analysis System) statistic program the 50% effective concentration (EC50) for recognizing an insulin β sheet structure for the test compound was obtained.

The target of another data set is T2, amyloid β protein (Homo sapiens, UniProt P05067).
T2 construct: the amyloid β protein (purchased from Peptide Laboratory) was dissolved in a potassium phosphate buffer (pH7.4); purchased Peptide Laboratory
Briefly: β structure recognition of amyloid β protein (thioflavin T fluorescence). The format is binding. The conditions noted are these: for β structure recognition (%) at 1 µM: read-out: β Structure recognition (%); for β structure recognition (in words): comment on Table I. As to the method:
(1) Method of Quantifying the Amyloid β Protein Having β Sheet Structure—method of Measuring of Recognition of β Structure in a Test Compound
Then, each 100 microliters of thioflavin T (which emits fluorescence depending on an extent of β structure of the amyloid β protein) dissolved in a glycine-NaOH buffer (pH 8.5) was added (final concentration 3 μM), and the fluorescence was immediately measured with a fluorescent microplate reader (manufactured by Molecular Device, Model fmax) at an excitation wavelength of 442 nm and a measurement wavelength of 485 nm. When the fluorescence of thioflavin alone was regarded as A, the fluorescence under the coexistence of the amyloid β protein and thioflavin T was regarded as B, and the fluorescence under the coexistence of the amyloid β protein, thioflavin T and a test compound was regarded as C, the recognition of β structure for the test compound was calculated by the following formula (unless otherwise indicated, the concentration of a test compound was 1 μM):
β structure recognition for test compound (%)={(B−C)/(B−A)}×100

Data set [1] can be described thus: Distribution coefficient between water/1-octanol. The format is physicochemical. Conditions: 1-octanol / aqueous phase, pH 5.
A short description of data set [2]: Distribution coefficient between water/1-octanol. Type of data set: physicochemical. As to the method:
As an oily phase, 1-octanol was used and, as an aqueous phase, a phosphate buffer (pH 7.3) or ultra-pure water was used. A suitable amount of a test compound was dissolved in an oily phase or an aqueous phase, and both phases were placed in the same test tube, and shaken vigorously at room temperature for 30 minutes. After allowing to stand at room temperature over 1 hour, centrifugation at 2000 rpm for 10 minutes was carried out, followed by further standing at room temperature for 1 hour. The aqueous phase and the oily phase were sampled, respectively, and transferred to a 96-well microplate. By using a microplate reader (manufactured by Molecular Device, Model Spectramax 250), the absorbance was measured at a maximum absorbing wavelength for each test compound, and the concentration of the test compound was calculated from a calibration curve previously obtained. A distribution coefficient was calculated by the following formula. Distribution coefficient for test compound =(concentration of test compound in oily phase)/(concentration of test compound in aqueous phase) As the distribution coefficient becomes larger, it can be said that the blood-brain barrier permeability for the test compound is higher.

[3] abbreviates: test compound 1 μM, thioflavin T 3 μM, average of duplicated experiments.

The text below walks through data of patent publication US20030138374A1, “Image diagnosis probe based on substituted azobenzene or analogue thereof for disease attributable to amyloid accumulation and composition for image diagnosis containing the same” (priority 2000, published 2003).

Molecules are shown by their SMILES. Like-named read-outs stand apart in the source and are kept apart here.

T2 sequence (P05067 672-711 limits assumed): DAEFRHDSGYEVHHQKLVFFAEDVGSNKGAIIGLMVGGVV
T1 sequence (P01308 25-54 limits assumed, species assumed): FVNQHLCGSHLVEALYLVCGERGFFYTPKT
T1 sequence (P01308 90-110 limits assumed, species assumed): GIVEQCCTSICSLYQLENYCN

As usually defined, the EC50 is the concentration at which the effect is half-maximal. As to `O=C(O)c1cc(/N=N/c2ccc(-c3ccc(/N=N/c4ccc(O)c(C(=O)O)c4)cc3)cc2)ccc1O` [Chrysamine G, reference compound], the EC50 at insulin was determined as 253 nM. Besides, on amyloid β protein (setting [3]), the β structure recognition (%) at 1 µM is 66.8%. Further, the Distribution coefficient in data set [1] was 9.7 (pH 5).
On to `CN(C)c1ccc(/N=N/c2ccc(N=C=S)cc2)cc1` [SA-239, 4-((4-isothiocyanatphenyl)azo)-N,N-dimethylaniline], for which the EC50 at insulin worked out at 120 nM. In addition, on amyloid β protein, the “β structure recognition (in words)” value is given as “highly recognize β structure” and the β structure recognition (%) at 1 µM came out at 83.3%.
For `CN(C)c1ccc(/N=C2\C=CC(=O)c3ccccc32)cc1` [SA-244, Indophenol Blue], on insulin, the EC50 came to 449 nM. Moreover, the “β structure recognition (in words)” value on amyloid β protein was “highly recognize β structure”. For the same compound, the β structure recognition (%) at 1 µM at amyloid β protein (setting [3]) turned out to be 96.9%.
Consider `CCN(CC)c1ccc(/N=N/c2ccc(Br)cn2)c(O)c1` [SA-147], for which the EC50 on insulin is 38 nM. For the same compound, at amyloid β protein, the “β structure recognition (in words)” value is on record as “highly recognize β structure”. Also, the β structure recognition (%) at 1 µM on amyloid β protein (setting [3]) worked out at 87.2%.
As to `CCN(CC)c1ccc(/N=C/c2ccc(N(CC)CC)cc2O)cc1` [Compound N-058, 5-(diethylamino)-2-({[4-(diethylamino)phenyl]imino}methyl)phenol], the EC50 at insulin came to 129 nM. Besides, the “β structure recognition (in words)” value at amyloid β protein is listed as “highly recognize β structure”. Besides, the “β Structure recognition (%)” value at amyloid β protein (setting [3]) was found to be 93.6%.
`Nc1c(/N=N/c2ccc(-c3ccc(/N=N/c4cc(S(=O)(=O)O)c5ccccc5c4N)cc3)cc2)cc(S(=O)(=O)O)c2ccccc12` [Congo red, reference compound]: the EC50 at insulin came to 153 nM. The β structure recognition (%) at 1 µM at amyloid β protein (setting [3]) turned out to be 89.3%.
Turning to `CN(C)c1ccc(/C=C/c2cccc(/C=C/c3ccc(N(C)C)cc3)[n+]2C)cc1.[I-]` [Compound N-039, N-[4-(2-{6-[4-(dimethylamino)styryl]-1-methylpiridinium-2-yl}vinyl)phenyl]-N-methylmethanamine], the EC50 at insulin came to 113 nM. The Distribution coefficient in data set [2] (1-octanol / phosphate buffer (pH 7.3) or ultra-pure water) turned out to be 35. Moreover, the “Distribution coefficient (in words)” value in data set [2] (comment on Table I) is “high distribution coefficients”. Further, the “β structure recognition (in words)” value on amyloid β protein is on record as “highly recognize β structure”. For the same compound, the β structure recognition (%) at 1 µM at amyloid β protein (setting [3]) came to 97.7%.
